# Data reported in paper PMC11272821, “Mechanistic safety assessment via multi-omic characterisation of systemic pathway perturbations following in vivo MAT2A inhibition” (Archives of Toxicology, 2024).
# System: rat liver proteome
# Experiment: Liver label-free quantitative proteomics
# Format: in vivo
# Settings: for differentially expressed liver proteins vs vehicle control: adjusted p < 0.05 and Log2 FC > 0.5 or < −0.5
# Description: Liver tissue were homogenized in PreOmics iST buffer (PreOmics) using a bead ruptor. […] Peptides were purified using PreOmics iST cartridges and vacuum-centrifuged to dryness. Peptides were subsequently reconstituted in 2 vol% ACN and 0.1 vol% formic acid for single-run LC–MS analysis. Peptides were analyzed using a Thermo EASY-nLC1200 coupled online to an Exploris 480 Mass Spectrometer equipped with a Nanospray Flex Ion Source integrated with a column oven (PRSO-V1, Sonation) and a FAIMS unit. Peptides were separated using a nonlinear gradient and analyzed by acquiring spectra through Data Independent Acquisition (DIA). Data was analyzed using Spectronaut V15.7.2 (Biognosys AG) direct DIA analysis using an isoform Rat database (UniProt downloaded 22.02.2021) consisting of 9,746 protein entries utilizing the Pulsar search engine. Analysis settings were maintained to factory settings and identification was set to 1% false discovery rate (FDR) for precursor and protein level. Additional information is provided in Supplementary M&M.
# Data analysis was performed using R Statistical Software (version 4.3.0). Proteomics, transcriptomics and metabolomics expression changes were visualised using heatmaps showing log2 fold change relative to control. In the heatmaps missing values were highlighted in grey.
# Proteomics Analysis. Liver tissue was placed in vials containing 1.4 mm zirconia beads and taken up in 500 µL of PreOmics iST buffer (PreOmics). In a cold room set to 4 °C, tissues were homogenized utilizing a bead Ruptor 12 by shaking for 30 seconds for a total of 5 times using ‘high’ setting. Lysate was normalized using BCA assay (Thermo Fisher Scientific), and subsequently incubated at 95 °C for 10 min for reduction, and alkylation of proteins. A total of 50 μg from each sample was subjected to enzymatic cleavage for 3 h by adding equal amounts of endoproteinase Lys-C and trypsin (ThermoFisher Scientific, # A40009) in a 1:50 (wt/wt) enzyme:protein ratio. De-salting and purification were performed according to the PreOmics iST protocol on a styrene divinylbenzene reversed-phase sulfonate sorbent. Purified peptides were vacuum-centrifuged to dryness and reconstituted in double-distilled water with 2 vol% ACN and 0.1 vol% formic acid (FA) for single-run LC-MS analysis.
# Peptides were loaded onto a ReproSil-Pur 120 C18AQ 1.9 µm in-house packed to a 5 µm tip 75u ID × 360u × 50 cm column using Thermo EASY-nLC 1200 coupled online to an Exploris 480 Mass Spectrometer equipped with a Nanospray Flex Ion Source integrated with a column oven (PRSO-V1, Sonation) maintained at 50 °C. Peptides were separated using a nonlinear gradient: Mobile phase A was 0.1 vol% FA and 3 vol% acetonitrile (ACN) in water, Mobile phase B was 90 vol% ACN and 0.1 vol % FA. The gradient was operated at 250 nL/min flowing 3 vol% B for 3 min, 3 to 5 vol% B over 3 min, 5 to 17 vol % B over 120 min, 17 to 24 vol % B over 26 min, 24 to 30 vol% B over 14 min, 30 to 85 vol% B over 3 min.
compound,measurement,setting,value
Cn1cc2cc(-c3cc4[nH]nc(C5CC5)c4n(-c4ccc(OC(F)F)cc4)c3=O)ccc2n1 [AZ’9567],differentially expressed liver proteins vs vehicle control,3 mg/kg BID,around 357
same,differentially expressed liver proteins vs vehicle control,highest dose (30 mg/kg BID),519
same,A2m Log2FC,"liver protein, 3mg/kg",1.7
same,Abcb1 Log2FC,"liver protein, 3mg/kg",1.4
same,Abhd1 Log2FC,"liver protein, 3mg/kg",-1.8
same,Acaca Log2FC,"liver protein, 3mg/kg",-1
same,Acbd4 Log2FC,"liver protein, 3mg/kg",-0.7
same,Acly Log2FC,"liver protein, 3mg/kg",-1.1
same,Acsl1 Log2FC,"liver protein, 3mg/kg",-0.7
same,Acsl3 Log2FC,"liver protein, 3mg/kg",-0.8
same,Acsm2 Log2FC,"liver protein, 3mg/kg",1.4
same,Akap5 Log2FC,"liver protein, 3mg/kg",-1.0
same,Aldh1a1 Log2FC,"liver protein, 3mg/kg",1.7
same,Aldh1a7 Log2FC,"liver protein, 3mg/kg",1.5
same,Aldh16a1 Log2FC,"liver protein, 3mg/kg",-0.6
same,Alpl Log2FC,"liver protein, 3mg/kg",1.8
same,Als2 Log2FC,"liver protein, 3mg/kg",-1.1
same,Anpep Log2FC,"liver protein, 3mg/kg",0.8
same,Aox1 Log2FC,"liver protein, 3mg/kg",-0.6
same,Apeh Log2FC,"liver protein, 3mg/kg",-0.7
same,Apoc1 Log2FC,"liver protein, 3mg/kg",-1.2
same,Aqp8 Log2FC,"liver protein, 3mg/kg",0.8
same,Asns Log2FC,"liver protein, 3mg/kg",1.6
same,Baat Log2FC,"liver protein, 3mg/kg",-0.8
same,Banf1 Log2FC,"liver protein, 3mg/kg",0.8
same,Bhmt2 Log2FC,"liver protein, 3mg/kg",1.2
same,Bhmt Log2FC,"liver protein, 3mg/kg",1.7
same,Brix1 Log2FC,"liver protein, 3mg/kg",0.7
same,Ca5a Log2FC,"liver protein, 3mg/kg",1.1
same,Carnmt1 Log2FC,"liver protein, 3mg/kg",-1.4
same,Cbs Log2FC,"liver protein, 3mg/kg",-2.9
same,Ccnd1 Log2FC,"liver protein, 3mg/kg",12.4
same,Cdh1 Log2FC,"liver protein, 3mg/kg",0.7
same,Cdo1 Log2FC,"liver protein, 3mg/kg",-3.9
same,Ces2c Log2FC,"liver protein, 3mg/kg",1.4
same,Cfdp1 Log2FC,"liver protein, 3mg/kg",0.5
same,Chid1 Log2FC,"liver protein, 3mg/kg",0.9
same,Comt Log2FC,"liver protein, 3mg/kg",-0.5
same,Coq4 Log2FC,"liver protein, 3mg/kg",1.0
same,Csad Log2FC,"liver protein, 3mg/kg",-0.7
same,Ctbs Log2FC,"liver protein, 3mg/kg",-0.6
same,Cyp2c23 Log2FC,"liver protein, 3mg/kg",-0.6
same,Cyp4a2 Log2FC,"liver protein, 3mg/kg",1.4
same,Cyp4a10 Log2FC,"liver protein, 3mg/kg",1.7
same,Dbnl Log2FC,"liver protein, 3mg/kg",0.6
same,Dcakd Log2FC,"liver protein, 3mg/kg",1.0
same,Dkc1 Log2FC,"liver protein, 3mg/kg",0.6
same,Dmgdh Log2FC,"liver protein, 3mg/kg",1
same,Dohh Log2FC,"liver protein, 3mg/kg",0.8
same,Eif4ebp1 Log2FC,"liver protein, 3mg/kg",1.1
same,Enpep Log2FC,"liver protein, 3mg/kg",-0.8
same,Fabp5 Log2FC,"liver protein, 3mg/kg",-0.7
same,Fads1 Log2FC,"liver protein, 3mg/kg",-1.3
same,Fasn Log2FC,"liver protein, 3mg/kg",-0.7
same,Fdft1 Log2FC,"liver protein, 3mg/kg",0.9
same,Fdps Log2FC,"liver protein, 3mg/kg",0.5
same,Fgr Log2FC,"liver protein, 3mg/kg",1.5
same,Gimd1 Log2FC,"liver protein, 3mg/kg",-0.7
same,Gmpr Log2FC,"liver protein, 3mg/kg",0.8
same,Gnl3 Log2FC,"liver protein, 3mg/kg",1.0
same,Gnmt Log2FC,"liver protein, 3mg/kg",1.6
same,Gpcpd1 Log2FC,"liver protein, 3mg/kg",1.2
same,Gstm1 Log2FC,"liver protein, 3mg/kg",-0.8
same,Gstm2 Log2FC,"liver protein, 3mg/kg",-0.8
same,Gtpbp4 Log2FC,"liver protein, 3mg/kg",0.7
same,Hexa Log2FC,"liver protein, 3mg/kg",-0.6
same,Hfe Log2FC,"liver protein, 3mg/kg",1.1
same,Hmgcs1 Log2FC,"liver protein, 3mg/kg",1.3
same,Hmgn2 Log2FC,"liver protein, 3mg/kg",1.0
same,Hnrnpa1 Log2FC,"liver protein, 3mg/kg",1.1
same,Hsd17b7 Log2FC,"liver protein, 3mg/kg",0.6
same,Idi1 Log2FC,"liver protein, 3mg/kg",0.9
same,Igf1 Log2FC,"liver protein, 3mg/kg",-1.4
same,Kalrn Log2FC,"liver protein, 3mg/kg",0.7
same,Lipa Log2FC,"liver protein, 3mg/kg",-0.8
same,Lrrc8d Log2FC,"liver protein, 3mg/kg",0.9
same,Lyrm2 Log2FC,"liver protein, 3mg/kg",0.8
same,Mat1a Log2FC,"liver protein, 3mg/kg",0.9
same,Mat2a Log2FC,"liver protein, 3mg/kg",0.8
same,Mat2b Log2FC,"liver protein, 3mg/kg",-1.9
same,Me1 Log2FC,"liver protein, 3mg/kg",-1
same,Mettl7b Log2FC,"liver protein, 3mg/kg",-0.6
same,Mettl26 Log2FC,"liver protein, 3mg/kg",-1.8
same,Minpp1 Log2FC,"liver protein, 3mg/kg",0.6
same,Mospd1 Log2FC,"liver protein, 3mg/kg",-0.5
same,Mt1 Log2FC,"liver protein, 3mg/kg",6.2
same,Mtr Log2FC,"liver protein, 3mg/kg",1.1
same,Mybbp1a Log2FC,"liver protein, 3mg/kg",0.7
same,Ncl Log2FC,"liver protein, 3mg/kg",0.6
same,Nob1 Log2FC,"liver protein, 3mg/kg",0.9
same,Orm1 Log2FC,"liver protein, 3mg/kg",1.1
same,Paics Log2FC,"liver protein, 3mg/kg",0.7
same,Pcyt1a Log2FC,"liver protein, 3mg/kg",0.7
same,Pklr.1 Log2FC,"liver protein, 3mg/kg",-1
same,Prmt1 Log2FC,"liver protein, 3mg/kg",0.6
same,Pspc1 Log2FC,"liver protein, 3mg/kg",0.5
same,Ptprs Log2FC,"liver protein, 3mg/kg",-0.9
same,Pum3 Log2FC,"liver protein, 3mg/kg",0.7
same,Rbm3 Log2FC,"liver protein, 3mg/kg",0.9
same,Rgn Log2FC,"liver protein, 3mg/kg",-0.7
same,Rmdn1 Log2FC,"liver protein, 3mg/kg",0.6
same,S1pr1 Log2FC,"liver protein, 3mg/kg",-0.7
same,Scd1 Log2FC,"liver protein, 3mg/kg",-2.8
same,Sh3glb1 Log2FC,"liver protein, 3mg/kg",0.7
same,Sirt2 Log2FC,"liver protein, 3mg/kg",0.7
same,Sts Log2FC,"liver protein, 3mg/kg",-0.7
same,Tat Log2FC,"liver protein, 3mg/kg",-1.5
same,Tceanc2 Log2FC,"liver protein, 3mg/kg",1.2
same,Thg1l Log2FC,"liver protein, 3mg/kg",0.5
same,Tpmt Log2FC,"liver protein, 3mg/kg",-1.3
same,Tspo Log2FC,"liver protein, 3mg/kg",1.7
same,Txnrd2 Log2FC,"liver protein, 3mg/kg",-0.8
same,Ube2f Log2FC,"liver protein, 3mg/kg",0.7
same,Ugt2b1 Log2FC,"liver protein, 3mg/kg",-1.6
same,Wdr45 Log2FC,"liver protein, 3mg/kg",-0.8
same,Ythdc1 Log2FC,"liver protein, 3mg/kg",0.7
same,mvd Log2FC,"liver protein, 3mg/kg",0.7
same,A2m Log2FC,"liver protein, 10mg/kg",3.3
same,Abcb1 Log2FC,"liver protein, 10mg/kg",1.6
same,Abhd1 Log2FC,"liver protein, 10mg/kg",-0.9
same,Acaca Log2FC,"liver protein, 10mg/kg",-1.2
same,Acbd4 Log2FC,"liver protein, 10mg/kg",-1.3
same,Acly Log2FC,"liver protein, 10mg/kg",-0.6
same,Acsl1 Log2FC,"liver protein, 10mg/kg",-0.7
same,Acsl3 Log2FC,"liver protein, 10mg/kg",-0.6
same,Acsl5 Log2FC,"liver protein, 10mg/kg",-0.6
same,Akap5 Log2FC,"liver protein, 10mg/kg",-1.6
same,Aldh1a1 Log2FC,"liver protein, 10mg/kg",1.5
same,Aldh1a7 Log2FC,"liver protein, 10mg/kg",1.4
same,Aldh16a1 Log2FC,"liver protein, 10mg/kg",-0.5
same,Alpl Log2FC,"liver protein, 10mg/kg",1.6
same,Als2 Log2FC,"liver protein, 10mg/kg",-0.9
same,Anpep Log2FC,"liver protein, 10mg/kg",1.3
same,Aox1 Log2FC,"liver protein, 10mg/kg",-1.3
same,Apeh Log2FC,"liver protein, 10mg/kg",-0.7
same,Apoc1 Log2FC,"liver protein, 10mg/kg",-0.9
same,Aqp8 Log2FC,"liver protein, 10mg/kg",0.9
same,Asns Log2FC,"liver protein, 10mg/kg",0.9
same,Baat Log2FC,"liver protein, 10mg/kg",-1.1
same,Banf1 Log2FC,"liver protein, 10mg/kg",0.7
same,Bhmt2 Log2FC,"liver protein, 10mg/kg",1.3
same,Bhmt Log2FC,"liver protein, 10mg/kg",1.7
same,Brix1 Log2FC,"liver protein, 10mg/kg",0.9
same,Ca5a Log2FC,"liver protein, 10mg/kg",0.7
same,Carnmt1 Log2FC,"liver protein, 10mg/kg",-1.5
same,Cbs Log2FC,"liver protein, 10mg/kg",-3.1
same,Ccnd1 Log2FC,"liver protein, 10mg/kg",17.1
same,Cdh1 Log2FC,"liver protein, 10mg/kg",0.7
same,Cdo1 Log2FC,"liver protein, 10mg/kg",-5.2
same,Ces2c Log2FC,"liver protein, 10mg/kg",1.2
same,Cfdp1 Log2FC,"liver protein, 10mg/kg",0.5
same,Chid1 Log2FC,"liver protein, 10mg/kg",1.0
same,Comt Log2FC,"liver protein, 10mg/kg",-0.6
same,Coq4 Log2FC,"liver protein, 10mg/kg",0.6
same,Csad Log2FC,"liver protein, 10mg/kg",-1.3
same,Ctbs Log2FC,"liver protein, 10mg/kg",-0.7
same,Cyp2c23 Log2FC,"liver protein, 10mg/kg",-1.1
same,Cyp4a10 Log2FC,"liver protein, 10mg/kg",0.7
same,Dbnl Log2FC,"liver protein, 10mg/kg",0.5
same,Dcakd Log2FC,"liver protein, 10mg/kg",1.3
same,Dkc1 Log2FC,"liver protein, 10mg/kg",0.6
same,Dmgdh Log2FC,"liver protein, 10mg/kg",0.5
same,Dohh Log2FC,"liver protein, 10mg/kg",0.9
same,Eif4ebp1 Log2FC,"liver protein, 10mg/kg",0.8
same,Enpep Log2FC,"liver protein, 10mg/kg",-0.8
same,Fabp4 Log2FC,"liver protein, 10mg/kg",1.1
same,Fdft1 Log2FC,"liver protein, 10mg/kg",0.7
same,Fgr Log2FC,"liver protein, 10mg/kg",1.6
same,Gimd1 Log2FC,"liver protein, 10mg/kg",-0.9
same,Gmpr Log2FC,"liver protein, 10mg/kg",0.7
same,Gnl3 Log2FC,"liver protein, 10mg/kg",0.9
same,Gnmt Log2FC,"liver protein, 10mg/kg",1.3
same,Gpcpd1 Log2FC,"liver protein, 10mg/kg",1.4
same,Gstm1 Log2FC,"liver protein, 10mg/kg",-0.7
same,Gstm2 Log2FC,"liver protein, 10mg/kg",-1.0
same,Gtpbp4 Log2FC,"liver protein, 10mg/kg",0.8
